Literature values as cited in patent US8815898B2, “6,7-disubstituted-sioquinoline derivatives and their use” (Montisera Ltd, priority 2010, dated 2014).

**Q.** Which results are given for `c1ccc2c(c1)CCNC2` [TIQ]?
**A.** hydroxylated (C4 of the isoquinoline backbone) derivative in the urine (most abundant metabolite in urine, 4-hydroxy derivative of the parent): 2.7%; excreted in urine unchanged (share excreted in urine unchanged): 76%; exit the brain unchanged (share of compound leaving the brain unchanged): 90.4%
